From US11541055B2, “Inhibitors of human immunodeficiency virus replication” (ViiV Healthcare UK (No. 5) LIMITED, priority 2018, dated 2023)
pEC50: −log10 of the molar value.

Legend:
[1] = tested on: recombinant NL4-3 virus (Renilla luciferase) in MT-2 cells; assay: HIV cell culture assay (antiviral activity, luciferase readout); format: cell-based; conditions: Renilla, NL43
In short: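 Antiviral EC50 was derived via the median effect equation from luciferase signal. The signal came from MT-2 cultures infected for 4–5 days with a nef-deleted, Renilla luciferase-expressing NL4-3 reporter virus (made in 293T cells) in the presence of compound dilutions.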

[2] = Compound cytotoxicity, XTT-based colorimetric assay; format: cell-based; conditions: human; uninfected MT2 cells, day 4, XTT
In short: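 Run under the antiviral-assay protocol but without virus. Viability was read on day 4 and CC50 values were derived from the readout.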

Compound	pEC50 [1]	CC50 at 4 days [2]
COCc1nccc(-c2ccc3c(=O)n(-c4ccc(Cl)c5c(NS(C)(=O)=O)nn(C)c45)c([C@H](Cc4cc(F)cc(F)c4)NC(=O)Cn4nc(C(F)F)c5c4C(F)(F)[C@@H]4C[C@H]54)nc3c2)n1 (atropisomer, axis not shown; (P)) [Example 74, N—((S)-1-((3P)-3-(4-chloro-1-methyl-3-(methylsulfonamido)-1H-indazol-7-yl)-7-(2-(methoxymethyl)pyrimidin-4-yl)-4-oxo-3,4-dihydroquinazolin-2-yl)-2-(3,5-difluorophenyl)ethyl)-2-((3bS,4aR)-3-(difluoromethyl)-5,5-difluoro-3b,4,4a,5-tetrahydro-1H-cyclopropa[3,4]cyclopenta[1,2-c]pyrazol-1-yl)acetamide]	10.10	> 500 nM
CCc1cc(-c2ccc3c(=O)n(-c4ccc(C)c5c(NS(C)(=O)=O)nn(C)c45)c([C@H](Cc4cc(F)cc(F)c4)NC(=O)Cn4nc(C(F)F)c5c4C(F)(F)[C@@H]4C[C@H]54)nc3c2)nc(C)n1 (atropisomer, axis not shown) [Example 139, 2-[(2S,4R)-9-(difluoromethyl)-5,5-difluoro-7,8-diazatricyclo[4.3.0.0^2,^4]nona-1(6),8-dien-7-yl]-N-[(1S)-2-(3,5-difluorophenyl)-1-[7-(6-ethy1-2-methylpyrimidin-4-yl)-3-(3-methanesulfonamido-1,4-dimethyl-1H-indazol-7-yl)-4-oxo-3,4-dihydroquinazolin-2-yl]ethyl]acetamide]	9.89	> 500 nM
Cc1cc(-c2ccc3c(=O)n(-c4ccc(Cl)c5c(NS(C)(=O)=O)nn(C)c45)c([C@H](Cc4cc(F)cc(F)c4)NC(=O)Cn4nc(C(F)F)c5c4C(F)(F)[C@@H]4C[C@H]54)nc3c2)nc(C)n1 (atropisomer, axis not shown; (P)) [Example 44, N—((S)-1-((3P)-3-(4-chloro-1-methyl-3-(methylsulfonamido)-1H-indazol-7-yl)-7-(2,6-dimethylpyrimidin-4-yl)-4-oxo-3,4-dihydroquinazolin-2-yl)-2-(3,5-difluorophenyl)ethyl)-2-((3bS,4aR)-3-(difluoromethyl)-5,5-difluoro-3b,4,4a,5-tetrahydro-1H-cyclopropa[3,4]cyclopenta[1,2-c]pyrazol-1-yl)acetamide]	10.40	> 500 nM
Cn1nc(NS(C)(=O)=O)c2c(Cl)ccc(-n3c([C@H](Cc4cc(F)cc(F)c4)NC(=O)Cn4nc(C(F)F)c5c4C(F)(F)[C@@H]4C[C@H]54)nc4cc(-c5ncccc5S(C)(=O)=O)ccc4c3=O)c21 (atropisomer, axis not shown; (P)) [Example 8, N—((S)-1-((3P)-3-(4-chloro-1-methyl-3-(methylsulfonamido)-1H-indazol-7-yl)-7-(3-(methylsulfonyl)pyridin-2-yl)-4-oxo-3,4-dihydroquinazolin-2-yl)-2-(3,5-difluorophenyl)ethyl)-2-((3bS,4aR)-3-(difluoromethyl)-5,5-difluoro-3b,4,4a,5-tetrahydro-1H-cyclopropa[3,4]cyclopenta[1,2-c]pyrazol-1-yl)acetamide]	10.11	> 500 nM
COc1cccnc1-c1ccc2c(=O)n(-c3ccc(Cl)c4c(NS(C)(=O)=O)nn(C)c34)c([C@H](Cc3cc(F)cc(F)c3)NC(=O)Cn3nc(C(F)F)c4c3C(F)(F)[C@@H]3C[C@H]43)nc2c1 (atropisomer, axis not shown; (P)) [Example 11, N—((S)-1-((3P)-3-(4-chloro-1-methyl-3-(methylsulfonamido)-1H-indazol-7-yl)-7-(3-methoxypyridin-2-yl)-4-oxo-3,4-dihydroquinazolin-2-yl)-2-(3,5-difluorophenyl)ethyl)-2-((3bS,4aR)-3-(difluoromethyl)-5,5-difluoro-3b,4,4a,5-tetrahydro-1H-cyclopropa[3,4]cyclopenta[1,2-c]pyrazol-1-yl)acetamide]	9.92	> 500 nM
Cn1nc(NS(C)(=O)=O)c2c(Cl)ccc(-n3c([C@H](Cc4cc(F)cc(F)c4)NC(=O)Cn4nc(C(F)F)c5c4C(F)(F)[C@@H]4C[C@H]54)nc4cc(-c5ccnc(C6CC6)n5)ccc4c3=O)c21 (atropisomer, axis not shown; (P)) [Example 78, N—((S)-1-((3P)-3-(4-chloro-1-methyl-3-(methylsulfonamido)-1H-indazol-7-yl)-7-(2-cyclopropylpyrimidin-4-yl)-4-oxo-3,4-dihydroquinazolin-2-yl)-2-(3,5-difluorophenyl)ethyl)-2-((3bS,4aR)-3-(difluoromethyl)-5,5-difluoro-3b,4,4a,5-tetrahydro-1H-cyclopropa[3,4]cyclopenta[1,2-c]pyrazol-1-yl)acetamide]	9.80	> 500 nM
COc1ccc(-c2ccc3c(=O)n(-c4ccc(Cl)c5c(NS(C)(=O)=O)nn(CC(F)(F)F)c45)c([C@H](Cc4cc(F)cc(F)c4)NC(=O)Cn4nc(C(F)F)c5c4C(F)(F)[C@@H]4C[C@H]54)nc3c2)nn1 (atropisomer, axis not shown) [Example 110, N-[(1S)-1-{3-[4-chloro-3-methanesulfonamido-1-(2,2,2-trifluoroethyl)-1H-indazol-7-yl]-7-(6-methoxypyridazin-3-yl)-4-oxo-3,4-dihydroquinazolin-2-yl}-2-(3,5-difluorophenyl)ethyl]-2-[(2S,4R)-9-(difluoromethyl)-5,5-difluoro-7,8-diazatricyclo[4.3.0.0^2,^4]nona-1(6),8-dien-7-yl]acetamide]	10.15	> 500 nM
Cn1nc(NS(C)(=O)=O)c2c(Cl)ccc(-n3c([C@H](Cc4cc(F)cc(F)c4)NC(=O)Cn4nc(C(F)F)c5c4C(F)(F)[C@@H]4C[C@H]54)nc4cc(-c5ccccc5OC(F)(F)F)ccc4c3=O)c21 (atropisomer, axis not shown; (P)) [Example 14, N—((S)-1-((3P)-3-(4-chloro-1-methyl-3-(methylsulfonamido)-1H-indazol-7-yl)-4-oxo-7-(2-(trifluoromethoxy)phenyl)-3,4-dihydroquinazolin-2-yl)-2-(3,5-difluorophenyl)ethyl)-2-((3bS,4aR)-3-(difluoromethyl)-5,5-difluoro-3b,4,4a,5-tetrahydro-1H-cyclopropa[3,4]cyclopenta[1,2-c]pyrazol-1-yl)acetamide]	8.68	> 500 nM
CC(C)(C)S(=O)(=O)c1ccccc1-c1ccc2c(=O)n(-c3ccc(Cl)c4c(NS(C)(=O)=O)nn(CC(F)F)c34)c([C@H](Cc3cc(F)cc(F)c3)NC(=O)Cn3nc(C(F)F)c4c3C(F)(F)[C@@H]3C[C@H]43)nc2c1 (atropisomer, axis not shown) [Example 130]	9.89	> 500 nM
Cc1nnc(-c2ccc3c(=O)n(-c4ccc(Cl)c5c(NS(C)(=O)=O)nn(CC(F)F)c45)c([C@H](Cc4cc(F)cc(F)c4)NC(=O)Cn4nc(C(F)F)c5c4C(F)(F)[C@@H]4C[C@H]54)nc3c2)nc1C (atropisomer, axis not shown) [Example 133, N-[(1S)-1-{3-[4-chloro-1-(2,2-difluoroethyl)-3-methanesulfonamido-1H-indazol-7-yl]-7-(5,6-dimethyl-1,2,4-triazin-3-yl)-4-oxo-3,4-dihydroquinazolin-2-yl}-2-(3,5-difluorophenyl)ethyl]-2-[(2S,4R)-9-(difluoromethyl)-5,5-difluoro-7,8-diazatricyclo[4.3.0.0^2,^4]nona-1(6),8-dien-7-yl]acetamide]	10.40	> 500 nM
Cn1nc(NS(C)(=O)=O)c2c(Cl)ccc(-n3c([C@H](Cc4cc(F)cc(F)c4)NC(=O)Cn4nc(C(F)F)c5c4C(F)(F)[C@@H]4C[C@H]54)nc4cc(-c5ccccc5OC(F)F)ccc4c3=O)c21 (atropisomer, axis not shown; (P)) [Example 25, N—((S)-1-((3P)-3-(4-chloro-1-methyl-3-(methylsulfonamido)-1H-indazol-7-yl)-7-(2-(difluoromethoxy)phenyl)-4-oxo-3,4-dihydroquinazolin-2-yl)-2-(3,5-difluorophenyl)ethyl)-2-((3bS,4aR)-3-(difluoromethyl)-5,5-difluoro-3b,4,4a,5-tetrahydro-1H-cyclopropa[3,4]cyclopenta[1,2-c]pyrazol-1-yl)acetamide]	9.07	> 500 nM
Cc1ccc(-n2c([C@H](Cc3cc(F)cc(F)c3)NC(=O)Cn3nc(C(F)F)c4c3C(F)(F)[C@@H]3C[C@H]43)nc3cc(-c4ccccc4S(=O)(=O)C(C)(C)C)ccc3c2=O)c2c1c(NS(=O)(=O)C1CC1)nn2CC(F)F (atropisomer, axis not shown) [Example 142, N-[(1S)-1-{3-[3-cyclopropanesulfonamido-1-(2,2-difluoroethyl)-4-methyl-1H-indazol-7-yl]-7-[2-(2-methylpropane-2-sulfonyl)phenyl]-4-oxo-3,4-dihydroquinazolin-2-yl}-2-(3,5-difluorophenyl)ethyl]-2-[(2S,4R)-9-(difluoromethyl)-5,5-difluoro-7,8-diazatricyclo[4.3.0.0^2,^4]nona-1(6),8-dien-7-yl]acetamide]	9.42	> 500 nM
Cc1ccc(-n2c([C@H](Cc3cc(F)cc(F)c3)NC(=O)Cn3nc(C(F)F)c4c3C(F)(F)[C@@H]3C[C@H]43)nc3cc(-c4ccccc4N(C)S(C)(=O)=O)ccc3c2=O)c2c1c(NS(=O)(=O)C1CC1)nn2CC(F)F (atropisomer, axis not shown) [Example 145, N-[(1S)-1-{3-[3-cyclopropanesulfonamido-1-(2,2-difluoroethyl)-4-methyl-1H-indazol-7-yl]-7-[2-(N-methylmethanesulfonamido)phenyl]-4-oxo-3,4-dihydroquinazolin-2-yl}-2-(3,5-difluorophenyl)ethyl]-2-[(2S,4R)-9-(difluoromethyl)-5,5-difluoro-7,8-diazatricyclo[4.3.0.0^2,^4]nona-1(6),8-dien-7-yl]acetamide]	9.17	> 500 nM
